Counter-ions that a name gives are not always drawn.
Columns and labels:
[1] = target: T1, GSK3B (Homo sapiens, UniProt P49841); assay: NanoBRET cellular target engagement assay, Nanoluc-GSK3B in HEK293 cells; assay type: cell-based; design: expressed in transfected cells; conditions: NanoBRET GSK3β IC50, HEK293 cells, tracer K-8, 2 hours, 37° C
Experimental: (§1) In the assay, HEK293 cells stably expressing either Nanoluc-GSK3A or Nanoluc-GSK3B were maintained in culture media and seeded, using a multidrop dispenser, at a density of 5×10^3 cells per well in 384-well white plates with 100 ng/ml doxycycline (Sigma) overnight.
(§2) Compound was first diluted in DMSO to generate a 9-point serial dilution then diluted to 10× final concentration in Opti-MEM™ (Gibco). After overnight incubation, cell medium was aspirated from the seeded cells using a microplate automatic washer, then 27 μL of pre-warmed Opti-MEM™ with kinase tracer (K-8) and 3 μL of Opti-MEM™ diluted DMSO or compounds were added per well. Plates were protected from light, mixed in an orbital shaker for 3 min at RT and incubated at 37° C., 5% CO2 in a humidified incubator for 2 hours. After acclimation at RT for 15 min, 15 μL of 3× complete NanoBRET™ Nano-Glo Substrate/Inhibitor (Promega) was added per well. Plates were mixed in an orbital shaker for 3 min at RT and incubated for an additional 30 min. Donor emission at 460 nm and acceptor emission at 647 nm were measured in EnVision multilabel plate reader (Perkin Elmer).

[2] = target: T2, human GSK3α (Homo sapiens, UniProt P49840); assay: In vitro enzymatic activity assay, GSK3α; assay type: biochemical; conditions: 1.0 mM ATP, 1.0 μM peptide substrate, 120 min, 25° C, read-out: Enzyme GSK3α (IC50)
T2 construct: Full length human GSK3α or GSK3B expressed as N-terminal GST fusion proteins; GST (N); purchased Carna Biosciences (Japan); host or cells: baculovirus host
T2 sequence (P49840 whole entry, the tested form may be a part): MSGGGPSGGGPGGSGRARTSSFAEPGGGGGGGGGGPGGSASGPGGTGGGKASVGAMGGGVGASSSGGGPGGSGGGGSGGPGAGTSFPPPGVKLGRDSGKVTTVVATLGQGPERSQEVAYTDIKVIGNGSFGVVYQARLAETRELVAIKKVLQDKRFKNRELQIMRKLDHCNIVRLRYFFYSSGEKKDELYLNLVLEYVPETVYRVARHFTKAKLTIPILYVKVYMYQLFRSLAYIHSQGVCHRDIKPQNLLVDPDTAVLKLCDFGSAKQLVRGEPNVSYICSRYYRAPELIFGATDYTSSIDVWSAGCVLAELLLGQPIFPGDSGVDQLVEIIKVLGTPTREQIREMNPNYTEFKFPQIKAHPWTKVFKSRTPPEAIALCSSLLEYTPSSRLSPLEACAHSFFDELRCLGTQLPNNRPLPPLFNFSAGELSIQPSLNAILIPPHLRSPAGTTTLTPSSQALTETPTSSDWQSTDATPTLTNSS
Experimental: (§3) Full length human GSK3α or GSK3B expressed as N-terminal GST fusion proteins in baculovirus host were purchased from Carna Biosciences (Japan). The kinase was pre-incubated with ATP (adenosine-5′-triphosphate) for 45 min, then incubated with tested compounds for another 45 min in assay buffer that contains 100 mM HEPES (N-2-hydroxyethylpiperazine-N′-2-ethanesulfonic acid), pH 7.5, 10 mM MgCl2, 1.0 mM DTT, and 0.015% Briji-35. […] Percent inhibition was plotted against compound concentration to generate 10-point dose response curve with 3-fold serial dilution starting from 10 μM. IC50 value was determined from the 4-parameter logistic curve fitting.

[3] = target: T3, GSK3A (Homo sapiens, UniProt P49840); assay: NanoBRET cellular target engagement assay, Nanoluc-GSK3A in HEK293 cells; assay type: cell-based; conditions: NanoBRET GSK3α IC50, HEK293 cells, tracer K-8, 2 hours, 37° C
T3 construct: expressed in transfected cells
T3 sequence (P49840 whole entry): as the sequence (P49840 whole entry, the tested form may be a part) above
Experimental: as §1, §2

[4] = target: T1, GSK3B; assay: In vitro enzymatic activity assay, GSK3β; assay type: biochemical; design: Full length human GSK3α or GSK3B expressed as N-terminal GST fusion proteins; GST (N); purchased Carna Biosciences (Japan); host or cells: baculovirus host; conditions: 1.0 mM ATP, 1.0 μM peptide substrate, 120 min, 25° C, read-out: Enzyme GSK3β (IC50)
Experimental: as §3

T1 sequence (P49841 whole entry): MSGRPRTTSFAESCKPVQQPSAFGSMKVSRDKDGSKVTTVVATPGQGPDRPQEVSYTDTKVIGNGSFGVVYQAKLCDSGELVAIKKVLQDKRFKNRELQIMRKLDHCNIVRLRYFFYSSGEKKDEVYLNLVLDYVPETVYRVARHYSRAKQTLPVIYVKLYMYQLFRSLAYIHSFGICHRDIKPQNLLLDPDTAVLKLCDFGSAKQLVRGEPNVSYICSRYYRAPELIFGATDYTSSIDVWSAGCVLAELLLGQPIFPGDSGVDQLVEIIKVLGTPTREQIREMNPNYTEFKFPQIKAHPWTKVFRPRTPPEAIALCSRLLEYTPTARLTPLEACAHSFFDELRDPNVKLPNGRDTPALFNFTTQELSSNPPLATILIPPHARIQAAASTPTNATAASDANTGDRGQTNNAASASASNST

Structure (SMILES) | IC50 [1] | IC50 [2] | IC50 [3] | IC50 [4]
Nc1ncn(-c2c(Cl)cccc2Cl)c(=O)c1C(=O)Nc1cccc([C@@H]2COCCCN2)c1 (single isomer, unassigned) [Example 211, (R)—N-(3-(1,4-oxazepan-3-yl)phenyl)-4-amino-1-(2,6-dichlorophenyl)-6-oxo-1,6-dihydropyrimidine-5-carboxamide or (S)—N-(3-(1,4-oxazepan-3-yl)phenyl)-4-amino-1-(2,6-dichlorophenyl)-6-oxo-1,6-dihydropyrimidine-5-carboxamide] | 797 nM | 15.9 nM | 8.6 nM | 888 nM
CN[C@H](C)c1cc(F)cc(NC(=O)c2c(N)ncn(-c3c(Cl)cccc3Cl)c2=O)c1 [Example 6, (R)-4-amino-1-(2,6-dichlorophenyl)-N-(3-fluoro-5-(1-(methylamino)ethyl)phenyl)-6-oxo-1,6-dihydropyrimidine-5-carboxamide trifluoroacetate] | 352 nM | 7.2 nM | 6.5 nM | 292 nM
COCc1cc(Cl)c(-n2cnc(N)c(C(=O)Nc3cncc(CNCCO)c3)c2=O)c(Cl)c1 [Example 63, 4-amino-1-(2,6-dichloro-4-(methoxymethyl)phenyl)-N-(5-(((2-hydroxyethyl)amino)methyl)pyridin-3-yl)-6-oxo-1,6-dihydropyrimidine-5-carboxamide] | 234 nM | 4.5 nM | 4.4 nM | 209 nM
CCOCc1cc(C)c(-n2cnc(N)c(C(=O)Nc3cncc(C4CCCCCN4)c3)c2=O)c(C)c1 (single isomer, unassigned) [Example 132, (R)-4-amino-N-(5-(azepan-2-yl)pyridin-3-yl)-1-(4-(ethoxymethyl)-2,6-dimethylphenyl)-6-oxo-1,6-dihydropyrimidine-5-carboxamide or (S)-4-amino-N-(5-(azepan-2-yl)pyridin-3-yl)-1-(4-(ethoxymethyl)-2,6-dimethylphenyl)-6-oxo-1,6-dihydropyrimidine-5-carboxamide] | 181 nM | 5.5 nM | 2 nM | 228 nM
COCc1cc(C)c(-n2cnc(N)c(C(=O)Nc3cnnc(C(N)=O)c3)c2=O)c(C)c1 [Example 30, 5-(4-amino-1-(4-(methoxymethyl)-2,6-dimethylphenyl)-6-oxo-1,6-dihydropyrimidine-5-carboxamido)pyridazine-3-carboxamide] | 15800 nM | 63.9 nM | 72.2 nM | 1950 nM
Cc1cc(C(C)(F)F)cc(C)c1-n1cnc(N)c(C(=O)Nc2cncc([C@H]3CCCCN3)c2)c1=O [Example 186, (R)-4-amino-1-(4-(1,1-difluoroethyl)-2,6-dimethylphenyl)-6-oxo-N-(5-(piperidin-2-yl)pyridin-3-yl)-1,6-dihydropyrimidine-5-carboxamide] | 152 nM | 4.4 nM | 2.1 nM | 169 nM
COc1cc(Cl)c(-n2cnc(N)c(C(=O)Nc3cncc([C@@H]4C[C@@H](C)N4)c3)c2=O)c(Cl)c1 (single isomer, unassigned) [Example 214, 4-amino-1-(2,6-dichloro-4-methoxyphenyl)-N-(5-((2S,4R)-4-methylazetidin-2-yl)pyridin-3-yl)-6-oxo-1,6-dihydropyrimidine-5-carboxamide formate or 4-amino-1-(2,6-dichloro-4-methoxyphenyl)-N-(5-((2R,4S)-4-methylazetidin-2-yl)pyridin-3-yl)-6-oxo-1,6-dihydropyrimidine-5-carboxamide formate] | 640 nM | 17.3 nM | 8.9 nM | 930 nM
CCC[C@@H](N)c1cncc(NC(=O)c2c(N)ncn(-c3c(C)cc(C(F)F)cc3C)c2=O)c1 [Example 106, (R)-4-amino-N-(5-(1-aminobutyl)pyridin-3-yl)-1-(4-(difluoromethyl)-2,6-dimethylphenyl)-6-oxo-1,6-dihydropyrimidine-5-carboxamide] | 195 nM | 4.5 nM | 2.8 nM | 279 nM
CCOc1cc(Cl)c(-n2cnc(N)c(C(=O)Nc3cncc(C4COCCCN4)c3)c2=O)c(Cl)c1 (single isomer, unassigned) [Example 135, (R)-N-(5-(1,4-oxazepan-3-yl)pyridin-3-yl)-4-amino-1-(2,6-dichloro-4-ethoxyphenyl)-6-oxo-1,6-dihydropyrimidine-5-carboxamide or (S)-N-(5-(1,4-oxazepan-3-yl)pyridin-3-yl)-4-amino-1-(2,6-dichloro-4-ethoxyphenyl)-6-oxo-1,6-dihydropyrimidine-5-carboxamide] | 264 nM | 3.2 nM | 4.5 nM | 184 nM
Nc1ncn(-c2c(Cl)cc(OC(F)(F)F)cc2Cl)c(=O)c1C(=O)Nc1cncc([C@@H]2CCCN2)c1 [Example 109, (S)-4-amino-1-(2,6-dichloro-4-(trifluoromethoxy)phenyl)-6-oxo-N-(5-(pyrrolidin-2-yl)pyridin-3-yl)-1,6-dihydropyrimidine-5-carboxamide] | 567 nM | 15.6 nM | 8.4 nM | 803 nM
COC[C@@H](N)c1cncc(NC(=O)c2c(N)ncn(-c3c(Cl)cc(OC)cc3Cl)c2=O)c1 [Example 77, (S)-4-amino-N-(5-(1-amino-2-methoxyethyl)pyridin-3-yl)-1-(2,6-dichloro-4-methoxyphenyl)-6-oxo-1,6-dihydropyrimidine-5-carboxamide] | 196 nM | 2.2 nM | 3.5 nM | 152 nM
NCc1cccc(NC(=O)c2c(N)ncn(-c3c(Cl)cccc3Cl)c2=O)c1OC(F)F [Example 170, 4-amino-N-(3-(aminomethyl)-2-(difluoromethoxy)phenyl)-1-(2,6-dichlorophenyl)-6-oxo-1,6-dihydropyrimidine-5-carboxamide trifluoroacetate] | 526 nM | 21.8 nM | 16.4 nM | 520 nM
CNC(C)c1cncc(NC(=O)c2c(N)ncn(-c3c(Cl)cc(OC)cc3Cl)c2=O)c1 (single isomer, unassigned) [Example 18, (S)-4-amino-1-(2,6-dichloro-4-methoxyphenyl)-N-(5-(1-(methylamino)ethyl)pyridin-3-yl)-6-oxo-1,6-dihydropyrimidine-5-carboxamide or (R)-4-amino-1-(2,6-dichloro-4-methoxyphenyl)-N-(5-(1-(methylamino)ethyl)pyridin-3-yl)-6-oxo-1,6-dihydropyrimidine-5-carboxamide] | 429 nM | 11.9 nM | 7.1 nM | 622 nM
CCNCc1cncc(NC(=O)c2c(N)ncn(-c3c(Cl)cc(OC)cc3Cl)c2=O)c1 [Example 17, 4-amino-1-(2,6-dichloro-4-methoxyphenyl)-N-(5-((ethylamino)methyl)pyridin-3-yl)-6-oxo-1,6-dihydropyrimidine-5-carboxamide] | 271 nM | 7.8 nM | 3.8 nM | 340 nM
Cc1cc(C(F)CF)cc(C)c1-n1cnc(N)c(C(=O)Nc2cncc([C@H]3CCCCN3)c2)c1=O (single isomer, unassigned) [Example 111, 4-amino-1-(4-((R)-1,2-difluoroethyl)-2,6-dimethylphenyl)-6-oxo-N-(5-((R)-piperidin-2-yl)pyridin-3-yl)-1,6-dihydropyrimidine-5-carboxamide or 4-amino-1-(4-((S)-1,2-difluoroethyl)-2,6-dimethylphenyl)-6-oxo-N-(5-((R)-piperidin-2-yl)pyridin-3-yl)-1,6-dihydropyrimidine-5-carboxamide] | – | 3 nM | 2 nM | –

— patent US20260327191A1, “GSK3a INHIBITORS AND METHODS OF USE THEREOF” (Blueprint Medicines Corporation, priority 2023, published 2026)
